# Data as given in patent US4008267A, “3,3'-Di(sulfonyloxy-group-containing)substituted benzidine derivatives” (AB Kabi, priority 1974, dated 1977).
# Columns and labels:
# [1] = Color development of chromogen-reactive-indicator composition with glucose stock solutions (glucose oxidase/peroxidase); settings: 0.2 mM chromogen in reagent composition
# Description: Glucose was used as the control or test substance to be tested for in these tests.
# ______________________________________
# Chromogen used 0.2 mM (i.e. millimolar),
# glucose oxidase 3000 units,
# Stock or test solutions were prepared containing glucose in concentrations of 25, 50, 100, 200, 300, and 400 mg. per 100 ml.
# Before the final determination, this thus diluted solution is diluted further 1 part to 11 with the just described chromogen reagent solution. Thereafter the development of color is measured at 450 mm.
# When this particular dilution pattern is applied to the foregoing stock or test stem solutions, finally diluted solutions with the following respective glucose contents are obtained: 2.2, 4.3, 8.6, 13.0, and 17.3 mg. per liter.
# [2] = Light stability: extinction decrease after irradiation of the oxidized chromogen; assay type: physicochemical
# Description: In connection with this composition portion of the invention, laboratory tests were conducted by a standard method for evaluating different chromogens.
# [3] = Color stability at extinction maximum; assay type: physicochemical; settings: 0.2 mM chromogen; 4 hours the longest period observed
# [4] = Absorption wave length of the oxidized chromogen; assay type: physicochemical
# [5] = Solubility of the chromogens in water / at pH 7, reduced and oxidized state; settings: for solubility: pH 7, water
# [6] = background, cited from earlier work
# [7] = background, cited from earlier work; remark: listed apart in the source
# [8] = Stability of isolated product in air; assay type: physicochemical; settings: greyish crystal powder
# Description: d. 10 gm. of this 8,8'-bis(2-oxo-1,2,3,4,5,6-hexahydro-1-benzazocine) are refluxed for 12 hours with 200 ml. of concentrated hydrochloric acid. The solution is evaporated to a small volume, diluted with water, following which the pH is adjusted to 5 to 6 by adding concentrated sodium acetate solution.
# [9] = 450 nm (o-tolidine 430 nm), pH value 6.5
# [10] = Solubility at pH 7, oxidized (colored), pH 7, oxidized state
# [11] = Solubility at pH 7, reduced (uncolored), pH 7, reduced state
Compound,Precipitation of chromogen [1],"Color stability at extinction maximum, optional reading time [3]",Solubility in water (in words) [5],Discoloration in the air [8],"Extinction decrease % after irradiation 5 min. under 10 Watt tungsten lamp [2, 9]",Wave length range in nm ([4]; pH value 6.5),"solubility [5, 10]","solubility [5, 11]",Light absorption wave length in oxidized state [6],"Decline of extinction when exposed to light ([7]; oxidized, exposed to light)",Sensitivity of color to light ([7]; oxidized),"Extinction decrease % after irradiation 5 min. under 10 Watt tungsten lamp ([2]; 630 nm, pH value 4.5)",Wave length range in nm ([4]; pH value 4.5),Absorption of temporarily appearing color ([6]; temporarily appearing color),Sensitivity of color to pH and temperature ([7]; temporarily appearing color at about 630 nm)
COc1cc(-c2ccc(N)c(OC)c2)ccc1N [o-dianisidine],–,–,–,–,26%,450 nm,10 µg/mL,110 µg/mL,about 450 nm,up to 25 per cent,sensitive to light,–,–,–,–
"Nc1ccc(-c2ccc(N)c(CCCCC(=O)O)c2)cc1CCCCC(=O)O [Example 6, Delta,delta'-(4,4'-diamino-3,3'-biphenyl)divaleric acid]",–,–,–,readily discolors in the air,–,–,–,–,–,–,–,–,–,–,–
Cc1cc(-c2ccc(N)c(C)c2)ccc1N [o-tolidine],–,–,–,–,1%,430 nm,7 µg/mL,130 µg/mL,about 450 nm,–,–,unstable,630 nm,about 630 nm,very sensitive to variations in pH and temperature

# More lines, main results first:
Precipitation of chromogen [1],"Color stability at extinction maximum, optional reading time [3]",Solubility in water (in words) [5],Discoloration in the air [8],Compound,"Extinction decrease % after irradiation 5 min. under 10 Watt tungsten lamp [2, 9]",Wave length range in nm ([4]; pH value 6.5),"solubility [5, 10]","solubility [5, 11]",Light absorption wave length in oxidized state [6],"Decline of extinction when exposed to light ([7]; oxidized, exposed to light)",Sensitivity of color to light ([7]; oxidized),"Extinction decrease % after irradiation 5 min. under 10 Watt tungsten lamp ([2]; 630 nm, pH value 4.5)",Wave length range in nm ([4]; pH value 4.5),Absorption of temporarily appearing color ([6]; temporarily appearing color),Sensitivity of color to pH and temperature ([7]; temporarily appearing color at about 630 nm)
no precipitation of it occurs,up to 4 hours,quite good,–,"Nc1ccc(-c2ccc(N)c(OCCCS(=O)(=O)O)c2)cc1OCCCS(=O)(=O)O [Example 3(b), Gamma,gamma'-(4,4'-diamino-3,3'-biphenyldioxy)dipropane sulfonic acid]",2%,450 nm,120 µg/mL,12000 µg/mL,–,–,–,–,–,–,–
no precipitation of chromogen occurred,up to 4 hours,very good,–,"Cl.Cl.Nc1ccc(-c2ccc(N)c(OCCCC(=O)O)c2)cc1OCCCC(=O)O [Example 1(d), Gamma, gamma'-(4,4'-diamino-3,3'-biphenyldioxy)dibutyric acid dihydrochloride]",2%,450 nm,700 µg/mL,70000 µg/mL,–,–,–,–,–,–,–
